pIC50: −log10 of the molar value. Calls of active or inactive are those of the source. The rule behind the calls is not given here.
The compounds below were run against T1, Inosine-5'-monophosphate dehydrogenase 2 (Homo sapiens, UniProt P12268) (assay: Inhibition of IMPDH2).
`COc1cc(N)ccc1-c1cnco1` was tested, and the pIC50 was 5.09. With `Nc1cccc2c(-c3ccncc3)c[nH]c12` the pIC50 was 6.28. For `Brc1ccc2c(-c3ccncc3)c[nH]c2c1`, the pIC50 was 6.39. `Nc1ccc2c(-c3ccncc3)c[nH]c2c1` was tested, and the pIC50 was 6.20. `N#Cc1c[nH]c2ccccc12` gave a pIC50 of 4.68. `c1ccc2c(-c3ccncc3)c[nH]c2c1` was tested, and the pIC50 was 5.94. `Cn1cc(C#N)c2ccccc21` was tested, and the pIC50 was 5.12. `Nc1ccc2c(-c3ccsc3)c[nH]c2c1` was tested, and the pIC50 was 5.63. `c1ccc2c(-c3ccoc3)c[nH]c2c1` gave a pIC50 of 5.23. Compound `Nc1ccc2c(-c3cncs3)c[nH]c2c1` has a pIC50 of 4.55. Work on `O=Cc1c[nH]c2ccccc12` [3-FORMYLINDOLE] yielded a pIC50 of 4.64. Work on `Cc1[nH]c2cc(N)ccc2c1-c1ccncc1` yielded a pIC50 of 6.38. Work on `Cc1[nH]c2ccccc2c1-c1ccncc1` yielded a pIC50 of 6.46. Work on `Cn1cc(-c2ccoc2)c2ccccc21` yielded a pIC50 of 5.21. In the case of `Cn1cc(C=O)c2ccccc21`, the pIC50 was 5.16.

The compounds below were run against T1, Inosine-5'-monophosphate dehydrogenase 2 (assay: Inhibition of IMPDH2 at 50 uM).
`Cn1cc(-c2ccncc2)c2ccc(Br)cc21` was tested, and the inhibition was 62%. `Cn1cc(C(N)=O)c2ccccc21` was tested, and the inhibition was 50%. For `NC(=O)c1c[nH]c2ccccc12`, the inhibition was “inactive”. `c1cncc(-c2c[nH]c3ccccc23)c1` was tested, and the inhibition was “inactive”. For `Cc1cc(-c2c[nH]c3cc(N)ccc23)ccn1`, the inhibition was “inactive”.

From ChEMBL document CHEMBL1147020, “Low molecular weight indole fragments as IMPDH inhibitors” (Bioorg Med Chem Lett, 2006)
